# Test results taken from article PMC8453901, “GLPG1205, a GPR84 Modulator: Safety, Pharmacokinetics, and Pharmacodynamics in Healthy Subjects” (Clinical Pharmacology in Drug Development, 2021).
# “And” between values parts separate entries of the source, which are not always exact repeats. Equal values may be shown once.
# Assays:
# [1] = Safety and tolerability, study 1 MAD part; type: in vivo, human
# Method: Safety and tolerability were assessed on the basis of adverse events (AEs), which were monitored throughout both studies. Additional safety assessments included vital signs (including supine [and standing in study 2] heart rate, systolic and diastolic blood pressure, and oral body temperature), 12‐lead electrocardiogram (ECG), clinical laboratory tests (hematology, coagulation [study 2 only], serum/plasma chemistry, urinalysis, urine drug screen, serology, and alcohol breath test), and a comprehensive physical examination. […] In the MAD part of study 1, all additional safety assessments were performed at screening; days 1, 2, 8, 14, and 15; and at follow‐up. In study 2, additional safety assessments were performed at screening (between 21 and 2 days before the first study drug administration); days 1, 2, 5, 10, 14, 15, and 20 (clinical laboratory tests were not performed on day 20); at early discontinuation; and at follow‐up. For study 2, renal function tests (measurement of estimated creatinine clearance rate using the Cockcroft‐Gault equation) were also included in the clinical laboratory tests for safety assessment.
# In both studies, the safety analysis was descriptive and focused on changes from baseline and treatment‐emergent findings.
# [2] = parameters: method as in PMID 32902984; details: rats, up to 100 mg/kg/d; cited from earlier work
# CYP2C9 = tested on: CYP2C9; parameters: method as in data on file at Galapagos; details: in vitro; ref data on file at Galapagos; cited from earlier work
smiles,measurement,setting,value
"O=c1nc(OC[C@@H]2COCCO2)cc2n1CCc1cc(C#CC3CC3)ccc1-2 [GLPG1205, 9‐cyclopropylethynyl‐2‐((S)‐1‐[1,4]dioxan‐2‐ylmethoxy)‐6,7‐dihydropyrimido[6,1‐a]isoquinolin‐4‐one]",Abdominal discomfort (TEAE),[1]; 50 mg QD (n = 6),0 number of subjects (%)
same,Abdominal distension (TEAE),[1]; 50 mg QD (n = 6),0 number of subjects (%)
same,Abdominal pain (TEAE),[1]; 50 mg QD (n = 6),0 number of subjects (%)
same,Abdominal pain upper (TEAE),[1]; 50 mg QD (n = 6),0 number of subjects (%)
same,Any TEAE,[1]; 50 mg QD (n = 6),2 (33.3) number of subjects (%)
same,Decreased appetite (TEAE),[1]; 50 mg QD (n = 6),0 number of subjects (%)
same,Dehydration (TEAE),[1]; 50 mg QD (n = 6),0 number of subjects (%)
same,Diarrhea (TEAE),[1]; 50 mg QD (n = 6),1 (16.7) number of subjects (%)
same,Disturbance in attention (TEAE),[1]; 50 mg QD (n = 6),0 number of subjects (%)
same,Dizziness (TEAE),[1]; 50 mg QD (n = 6),0 number of subjects (%)
same,Dry skin (TEAE),[1]; 50 mg QD (n = 6),1 (16.7) number of subjects (%)
same,Ecchymosis (TEAE),[1]; 50 mg QD (n = 6),0 number of subjects (%)
same,Erythema (TEAE),[1]; 50 mg QD (n = 6),0 number of subjects (%)
same,Fatigue (TEAE),[1]; 50 mg QD (n = 6),0 number of subjects (%)
same,Flatulence (TEAE),[1]; 50 mg QD (n = 6),0 number of subjects (%)
same,Gastrointestinal disorders (TEAE),[1]; 50 mg QD (n = 6),1 (16.7) number of subjects (%)
same,General disorders and administration site conditions (TEAE),[1]; 50 mg QD (n = 6),0 number of subjects (%)
same,Headache (TEAE),[1]; 50 mg QD (n = 6),0 number of subjects (%)
same,Hot flush (TEAE),[1]; 50 mg QD (n = 6),0 number of subjects (%)
same,Metabolism and nutrition disorders (TEAE),[1]; 50 mg QD (n = 6),0 number of subjects (%)
same,Musculoskeletal and connective tissue disorders (TEAE),[1]; 50 mg QD (n = 6),0 number of subjects (%)
same,Musculoskeletal stiffness (TEAE),[1]; 50 mg QD (n = 6),0 number of subjects (%)
same,Nausea (TEAE),[1]; 50 mg QD (n = 6),0 number of subjects (%)
same,Nervous system disorders (TEAE),[1]; 50 mg QD (n = 6),0 number of subjects (%)
same,Oropharyngeal pain (TEAE),[1]; 50 mg QD (n = 6),0 number of subjects (%)
same,"Respiratory, thoracic, and mediastinal disorders (TEAE)",[1]; 50 mg QD (n = 6),0 number of subjects (%)
same,Skin and subcutaneous tissue disorders (TEAE),[1]; 50 mg QD (n = 6),1 (16.7) number of subjects (%)
same,Somnolence (TEAE),[1]; 50 mg QD (n = 6),0 number of subjects (%)
same,Vascular disorders (TEAE),[1]; 50 mg QD (n = 6),0 number of subjects (%)
same,Vomiting (TEAE),[1]; 50 mg QD (n = 6),0 number of subjects (%)
same,subjects with treatment-emergent abnormality during physical examination,[1]; 50 mg once daily,1 n
same,Abdominal discomfort (TEAE),[1]; 100 mg QD (n = 6),1 (16.7) number of subjects (%)
same,Abdominal distension (TEAE),[1]; 100 mg QD (n = 6),0 number of subjects (%)
same,Abdominal pain (TEAE),[1]; 100 mg QD (n = 6),0 number of subjects (%)
same,Abdominal pain upper (TEAE),[1]; 100 mg QD (n = 6),1 (16.7) number of subjects (%)
same,Any TEAE,[1]; 100 mg QD (n = 6),5 (83.3) number of subjects (%)
same,Decreased appetite (TEAE),[1]; 100 mg QD (n = 6),0 number of subjects (%)
same,Dehydration (TEAE),[1]; 100 mg QD (n = 6),0 number of subjects (%)
same,Diarrhea (TEAE),[1]; 100 mg QD (n = 6),2 (33.3) number of subjects (%)
same,Disturbance in attention (TEAE),[1]; 100 mg QD (n = 6),0 number of subjects (%)
same,Dizziness (TEAE),[1]; 100 mg QD (n = 6),0 number of subjects (%)
same,Dry skin (TEAE),[1]; 100 mg QD (n = 6),0 number of subjects (%)
same,Ecchymosis (TEAE),[1]; 100 mg QD (n = 6),1 (16.7) number of subjects (%)
same,Erythema (TEAE),[1]; 100 mg QD (n = 6),1 (16.7) number of subjects (%)
same,Fatigue (TEAE),[1]; 100 mg QD (n = 6),0 number of subjects (%)
same,Flatulence (TEAE),[1]; 100 mg QD (n = 6),0 number of subjects (%)
same,Gastrointestinal disorders (TEAE),[1]; 100 mg QD (n = 6),3 (50.0) number of subjects (%)
same,General disorders and administration site conditions (TEAE),[1]; 100 mg QD (n = 6),0 number of subjects (%)
same,Headache (TEAE),[1]; 100 mg QD (n = 6),3 number of subjects (%) and 3 (50.0) number of subjects (%)
same,Hot flush (TEAE),[1]; 100 mg QD (n = 6),0 number of subjects (%)
same,Metabolism and nutrition disorders (TEAE),[1]; 100 mg QD (n = 6),0 number of subjects (%)
same,Musculoskeletal and connective tissue disorders (TEAE),[1]; 100 mg QD (n = 6),0 number of subjects (%)
same,Musculoskeletal stiffness (TEAE),[1]; 100 mg QD (n = 6),0 number of subjects (%)
same,Nausea (TEAE),[1]; 100 mg QD (n = 6),1 (16.7) number of subjects (%)
same,Nervous system disorders (TEAE),[1]; 100 mg QD (n = 6),3 (50.0) number of subjects (%)
same,Oropharyngeal pain (TEAE),[1]; 100 mg QD (n = 6),1 (16.7) number of subjects (%)
same,"Respiratory, thoracic, and mediastinal disorders (TEAE)",[1]; 100 mg QD (n = 6),1 (16.7) number of subjects (%)
same,Skin and subcutaneous tissue disorders (TEAE),[1]; 100 mg QD (n = 6),2 (33.3) number of subjects (%)
same,Somnolence (TEAE),[1]; 100 mg QD (n = 6),0 number of subjects (%)
same,Vascular disorders (TEAE),[1]; 100 mg QD (n = 6),0 number of subjects (%)
same,Vomiting (TEAE),[1]; 100 mg QD (n = 6),0 number of subjects (%)
same,subjects with treatment-emergent abnormality during physical examination,[1]; 100 mg once daily,1 n
same,Abdominal discomfort (TEAE),[1]; 200 mg QD (n = 6),1 (16.7) number of subjects (%)
same,Abdominal distension (TEAE),[1]; 200 mg QD (n = 6),1 (16.7) number of subjects (%)
same,Abdominal pain (TEAE),[1]; 200 mg QD (n = 6),1 (16.7) number of subjects (%)
same,Abdominal pain upper (TEAE),[1]; 200 mg QD (n = 6),0 number of subjects (%)
same,Any TEAE,[1]; 200 mg QD (n = 6),5 (83.3) number of subjects (%)
same,Decreased appetite (TEAE),[1]; 200 mg QD (n = 6),1 (16.7) number of subjects (%)
same,Dehydration (TEAE),[1]; 200 mg QD (n = 6),2 (33.3) number of subjects (%)
same,Diarrhea (TEAE),[1]; 200 mg QD (n = 6),1 (16.7) number of subjects (%)
same,Disturbance in attention (TEAE),[1]; 200 mg QD (n = 6),1 (16.7) number of subjects (%)
same,Dizziness (TEAE),[1]; 200 mg QD (n = 6),1 (16.7) number of subjects (%)
same,Dry skin (TEAE),[1]; 200 mg QD (n = 6),0 number of subjects (%)
same,Ecchymosis (TEAE),[1]; 200 mg QD (n = 6),0 number of subjects (%)
same,Erythema (TEAE),[1]; 200 mg QD (n = 6),0 number of subjects (%)
same,Fatigue (TEAE),[1]; 200 mg QD (n = 6),3 (50.0) number of subjects (%)
same,Flatulence (TEAE),[1]; 200 mg QD (n = 6),1 (16.7) number of subjects (%)
same,Gastrointestinal disorders (TEAE),[1]; 200 mg QD (n = 6),4 (66.7) number of subjects (%)
same,General disorders and administration site conditions (TEAE),[1]; 200 mg QD (n = 6),3 (50.0) number of subjects (%)
same,Headache (TEAE),[1]; 200 mg QD (n = 6),4 number of subjects (%) and 4 (66.7) number of subjects (%)
same,Hot flush (TEAE),[1]; 200 mg QD (n = 6),1 (16.7) number of subjects (%)
same,Metabolism and nutrition disorders (TEAE),[1]; 200 mg QD (n = 6),2 (33.3) number of subjects (%)
same,Musculoskeletal and connective tissue disorders (TEAE),[1]; 200 mg QD (n = 6),1 (16.7) number of subjects (%)
same,Musculoskeletal stiffness (TEAE),[1]; 200 mg QD (n = 6),1 (16.7) number of subjects (%)
same,Nausea (TEAE),[1]; 200 mg QD (n = 6),2 (33.3) number of subjects (%)
same,Nervous system disorders (TEAE),[1]; 200 mg QD (n = 6),5 (83.3) number of subjects (%)
same,Oropharyngeal pain (TEAE),[1]; 200 mg QD (n = 6),2 (33.3) number of subjects (%)
same,"Respiratory, thoracic, and mediastinal disorders (TEAE)",[1]; 200 mg QD (n = 6),2 (33.3) number of subjects (%)
same,Skin and subcutaneous tissue disorders (TEAE),[1]; 200 mg QD (n = 6),0 number of subjects (%)
same,Somnolence (TEAE),[1]; 200 mg QD (n = 6),1 (16.7) number of subjects (%)
same,Vascular disorders (TEAE),[1]; 200 mg QD (n = 6),1 (16.7) number of subjects (%)
same,Vomiting (TEAE),[1]; 200 mg QD (n = 6),2 (33.3) number of subjects (%)
same,subjects with treatment-emergent abnormality during physical examination,[1]; 200 mg once daily,2 n
same,TEAE leading to study drug withdrawal: abdominal pain,[1]; 200-mg once-daily group,1 n
same,TEAE leading to study drug withdrawal: decreased appetite,[1]; 200-mg once-daily group,1 n
same,TEAE leading to study drug withdrawal: dehydration,[1]; 200-mg once-daily group,2 n
same,TEAE leading to study drug withdrawal: diarrhea,[1]; 200-mg once-daily group,1 n
same,TEAE leading to study drug withdrawal: dizziness,[1]; 200-mg once-daily group,1 n
same,TEAE leading to study drug withdrawal: fatigue,[1]; 200-mg once-daily group,2 n
same,TEAE leading to study drug withdrawal: flatulence,[1]; 200-mg once-daily group,1 n
same,TEAE leading to study drug withdrawal: headache,[1]; 200-mg once-daily group,3 n
same,TEAE leading to study drug withdrawal: musculoskeletal stiffness,[1]; 200-mg once-daily group,1 n
same,TEAE leading to study drug withdrawal: nausea,[1]; 200-mg once-daily group,1 n
same,TEAE leading to study drug withdrawal: vomiting,[1]; 200-mg once-daily group,2 n
same,subjects in whom study drug was withdrawn,[1]; 200-mg once-daily group,3 subjects
same,"subjects with abnormally high hematocrit, hemoglobin and red blood cell count","[1]; 200-mg once-daily group, day 8",Two
same,maximum tolerated dose,"[1]; multiple doses, healthy male subjects",100 mg once daily
same,dose-proportionality of exposure,[2],increased dose‐proportionally
same,inhibition of CYP2C9,CYP2C9,weak inhibition
